This is an account of results in patent publication EP0417790B1, “S-triazolo[3,4-i]purine derivatives” (Kyowa Hakko Kogyo Co., Ltd., priority 1989, dated 1991).

For one data set, the system named is Wistar male rats. Nature of the data set: Diuretic activity. It is filed as in vivo. The note with it: Rattus norvegicus, po, 25 mg/kg orally, urine taken for 6 hours. How it is done:
Wistar male rats weighing 150 to 300 g were used after fasting for 18 hours. […] The test was performed using 3 groups per test compound, and each group consists of 3 animals. The urine was metered by a measuring cylinder and electrolytes (Na^+ and K^+) in the urine were analyzed by flame photometer (model […]: Hitachi Ltd.). Parameters in Table 3 are represented by relative value for control.

The subject of the next data set is male dd-mice. The data set can be described thus: Acute toxicity. It is filed as in vivo. The settings on record: Minimum lethal dose, oral, mortality observed for seven days. On the procedure: The compounds were orally administrated to male dd-mice weighing 20 ± 1 g. Minimum lethal dose (MLD) was determined by observing the mortality for seven days after the administration.

Setting [1] is: relative value for control (1.00), read-out: Na^+/K^+.
The mark [2] stands for this setting: relative value for control (100), read-out: Excretion of K^+.
The mark [3] stands for this setting: relative value for control (100), read-out: Excretion of Na^+.
Setting [4] is: relative value for control (100), read-out: Urine volume.

Read-outs that look alike come from different tables or passages of the source.

Regarding `CCCn1c(=O)n2c(-c3ccccc3OC)nnc2c2c1ncn2C` [Compound 7, 6,9-Dihydro-3-(2-methoxyphenyl)-9-methyl-6-n-propyl-5H-1,2,4-triazolo[3,4-i]purin-5-one], the response vs control in vivo at 25 mg/kg in the data set with Wistar male rats (setting [1]) stood at 133%; with Wistar male rats (setting [2]), 122%; with Wistar male rats (setting [3]), 162%; with Wistar male rats (setting [4]), 173%. The compound further gave an MLD in the data set on male dd-mice of 300 mg/kg.
For the compound `CCCn1c(=O)n2c(-c3ccccc3N)nnc2c2c1ncn2C` [Compound 13, 3-(2-Aminophenyl)-6,9-dihydro-9-methyl-6-n-propyl-5H-1,2,4-triazolo[3,4-i]purin-5-one], the MLD with male dd-mice is recorded as >300 mg/kg.
The same measure, in the same setting: under `CCCn1c(=O)n2c(-c3ccc(C(F)(F)F)cc3)nnc2c2c1ncn2C` [Compound 15, 6,9-Dihydro-9-methyl-6-n-propyl-3-(4-trifluoromethylphenyl)-5H-1,2,4-triazolo[3,4-i]purin-5-one] stands >300 mg/kg.
`CCCn1c(=O)n2c(-c3ccc([N+](=O)[O-])cc3)nnc2c2c1ncn2C` [Compound 16, 6,9-Dihydro-9-methyl-3-(4-nitrophenyl)-6-n-propyl-5H-1,2,4-triazolo[3,4-i]purin-5-one]: the response vs control in vivo at 25 mg/kg in the data set with Wistar male rats (setting [1]) came to 111%; in the data set on Wistar male rats (setting [2]), 175%; in the data set with Wistar male rats (setting [3]), 194%; with Wistar male rats (setting [4]), 170%. In the data set on male dd-mice, the MLD is listed as >300 mg/kg.
Consider `CCCn1c(=O)n2c(-c3ccc(F)cc3)nnc2c2c1ncn2C` [Compound 17, 6,9-Dihydro-3-(4-fluorophenyl)-9-methyl-6-n-propyl-5H-1,2,4-triazolo[3,4-i]purin-5-one], for which the response vs control in vivo at 25 mg/kg in the data set on Wistar male rats (setting [1]) is 142%; with Wistar male rats (setting [2]), 134%; with Wistar male rats (setting [3]), 179%; in the data set on Wistar male rats (setting [4]), 178%. The MLD in the data set on male dd-mice is >300 mg/kg.
The like results for `CCCn1c(=O)n2c(-c3ccc(N(C)C)cc3)nnc2c2c1ncn2C` [Compound 18, 6,9-Dihydro-3-(4-dimethylaminophenyl)-9-methyl-6-n-propyl-5H-1,2,4-triazolo[3,4-i]purin-5-one] were, in that order, 109%, 129%, 141%, 155% and >300 mg/kg.
As to `CCCn1c(=O)n2c(-c3cc(Cl)ccc3Cl)nnc2c2c1ncn2C` [Compound 19, 3-(2,5-Dichlorophenyl)-6,9-dihydro-9-methyl-6-n-propyl-5H-1,2,4-triazolo[3,4-i]purin-5-one], in the data set on male dd-mice, the MLD is reported as >300 mg/kg.
The same measure, in the same setting: under `CCCn1c(=O)n2c(-c3ccc(Cl)c(Cl)c3)nnc2c2c1ncn2C` [Compound 20, 3-(3,4-Dichlorophenyl)-6,9-dihydro-9-methyl-6-n-propyl-5H-1,2,4-triazolo[3,4-i]purin-5-one] stands >300 mg/kg; under `CCCn1c(=O)n2c(-c3ccc(OC)c(OC)c3)nnc2c2c1ncn2C` [Compound 21, 6,9-Dihydro-3-(3,4-dimethoxyphenyl)-9-methyl-6-n-propyl-5H-1,2,4-triazolo[3,4-i]purin-5-one], >300 mg/kg.
For `CCCn1c(=O)n2c(-c3ccc(C(=O)OC)cc3)nnc2c2c1ncn2C` [Compound 22, 6,9-Dihydro-3-(4-methoxycarbonylphenyl)-9-methyl-6-n-propyl-5H-1,2,4-triazolo[3,4-i]purin-5-one], the MLD in the data set with male dd-mice was >300 mg/kg.
For the compound `CCCn1c(=O)n2c(-c3ccc(C(=O)O)cc3)nnc2c2c1ncn2C` [Compound 23, 6,9-Dihydro-3-(4-carboxyphenyl)-9-methyl-6-n-propyl-5H-1,2,4-triazolo[3,4-i]purin-5-one], the MLD in the data set on male dd-mice is >300 mg/kg.
Still for that read-out and setting: to `CCCn1c(=O)n2c(-c3ccccc3)nnc2c2[nH]c(C3CCCC3)nc21` [Compound 26, 8-Cyclopentyl-6,9-dihydro-6-n-propyl-3-phenyl-5H-1,2,4-triazolo[3,4-i]purin-5-one] belongs >300 mg/kg; to `CCCn1c(=O)n2c(C)nnc2c2[nH]c(C3CCCC3)nc21` [Compound 27, 8-Cyclopentyl-6,9-dihydro-3-methyl-6-n-propyl-5H-1,2,4-triazolo[3,4-i]purin-5-one], >300 mg/kg.
On to `Cn1cnc2c1c1nnc(-c3ccccc3)n1c(=O)n2Cc1ccccc1` [Compound 28, 6-Benzyl-6,9-dihydro-9-methyl-3-phenyl-5H-1,2,4-triazolo-[3,4-i]purin-5-one], for which, in the data set on male dd-mice, the MLD is on record as >300 mg/kg.
For `CCCn1c(=O)n2c(-c3cccnc3)nnc2c2[nH]cnc21` [Compound 32, 6,9-Dihydro-6-n-propyl-3-(3-pyridyl)-5H-1,2,4-triazolo[3,4-i]purin-5-one], the response vs control in vivo at 25 mg/kg is 152% in the data set on Wistar male rats (setting [1]), 129% with Wistar male rats (setting [2]), 196% in the data set on Wistar male rats (setting [3]) and 195% in the data set with Wistar male rats (setting [4]).
For `CCCn1c(=O)n2c(-c3cccs3)nnc2c2[nH]cnc21` [Compound 33, 6,9-Dihydro-6-n-propyl-3-(2-thienyl)-5H-1,2,4-triazolo[3,4-i]purin-5-one], in the data set with male dd-mice, the MLD is given as >300 mg/kg.
On the same count and under the same terms, to `CCCn1c(=O)n2cnnc2c2c1ncn2C` [Compound 36, 6,9-Dihydro-9-methyl-6-n-propyl-5H-1,2,4-triazolo[3,4-i]purin-5-one] belongs 300 mg/kg; to `Cc1nnc2c3[nH]cnc3n(Cc3ccccc3)c(=O)n12` [Compound 37, 6-Benzyl-6,9-dihydro-3-methyl-5H-1,2,4-triazolo[3,4-i]purin-5-one], >300 mg/kg.
Take `Cn1cnc2c1c1n[nH]c(=O)n1c(=O)n2Cc1ccccc1` [Compound 42, 6-Benzyl-9-methyl-2,5,6,9-tetrahydro-3H-1,2,4-triazolo[3,4-i]purin-3,5-dione]: in the data set with male dd-mice, the MLD is >300 mg/kg.
Still for that read-out and setting: to `CCCn1c(=O)n2c(=O)[nH]nc2c2[nH]c(C3CCCC3)nc21` [Compound 43, 8-Cyclopentyl-6-n-propyl-2,5,6,9-tetrahydro-3H-1,2,4-triazolo[3,4-i]purin-3,5-dione] belongs >300 mg/kg; to `CCCn1c(=O)n2c(=S)[nH]nc2c2c1ncn2C` [Compound 46, 9-Methyl-6-n-propyl-2,2,6,9-tetrahydro-3-thioxo-5H-1,2,4-triazolo[3,4-i]purin-5-one], >300 mg/kg; to `CCCn1c(=O)n2c(=O)n(CC)nc2c2c1ncn2C` [Compound 48, 2-Ethyl-9-methyl-6-n-propyl-2,5,6,9-tetrahydro-3H-1,2,4-triazolo[3,4-i]purin-2,5-dione], >300 mg/kg.
`CCn1nc2c3c(ncn3C)n(Cc3ccccc3)c(=O)n2c1=O` [Compound 49, 6-Benzyl-2-ethyl-9-methyl-2,5,6,9-tetrahydro-3H-1,2,4-triazolo[3,4-i]purin-2,5-dione]: the response vs control in vivo at 25 mg/kg amounted to 161% in the data set on Wistar male rats (setting [1]), 173% in the data set on Wistar male rats (setting [2]), 279% with Wistar male rats (setting [3]) and 300% in the data set on Wistar male rats (setting [4]).
As to `NS(=O)(=O)c1cc(C(=O)O)c(NCc2ccco2)cc1Cl` [Furosemide, reference compound], in the data set with Wistar male rats (setting [1]), the response vs control in vivo at 25 mg/kg was 105%.
